Assay results taken from PubChem BioAssay AID1963437 (Molecular Pharmacology Branch, DTP, NCI, 2024).

Test system: OVCAR-8 complex spheroid, growth inhibition
Test: Anticancer human tumor OVCAR-8 cell line growth inhibition [Asc];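 further: spheroids exposed to agents for 7 days before readout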;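 on viability, T/C: percent viability relative to DMSO vehicle wells taken as 100%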
Settings: for IC50: curve of first compound; for viability, T/C: stronger effect = lower value
In short: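 Concentration series start at each agent's clinical Cmax, or at 10 microM when none is established, and drop in half-log steps; agents are applied alone or together to complex spheroids built with HUVEC and hMSC.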

[1] = second compound 0.0316 µM, first compound 0.00316 µM
[2] = second compound 0.0316 µM, first compound 0.01 µM
[3] = second compound 0.0316 µM, first compound 0.0316 µM
[4] = second compound 0.0316 µM, first compound 0.1 µM
[5] = second compound 0.0316 µM, first compound 0.316 µM
[6] = second compound 0.0316 µM, first compound 1 µM
[7] = second compound 0.1 µM, first compound 0.00316 µM
[8] = second compound 0.1 µM, first compound 0.01 µM
[9] = second compound 0.1 µM, first compound 0.0316 µM
[10] = second compound 0.1 µM, first compound 0.1 µM
[11] = second compound 0.1 µM, first compound 0.316 µM
[12] = second compound 0.1 µM, first compound 1 µM
[13] = second compound 0.316 µM, first compound 0.00316 µM
[14] = second compound 0.316 µM, first compound 0.01 µM
[15] = second compound 0.316 µM, first compound 0.0316 µM
[16] = second compound 0.316 µM, first compound 0.1 µM
[17] = second compound 0.316 µM, first compound 0.316 µM
[18] = second compound 0.316 µM, first compound 1 µM
[19] = second compound 1 µM, first compound 0.00316 µM
[20] = second compound 1 µM, first compound 0.01 µM
[21] = second compound 1 µM, first compound 0.0316 µM
[22] = second compound 1 µM, first compound 0.1 µM
[23] = second compound 1 µM, first compound 0.316 µM
[24] = second compound 1 µM, first compound 1 µM
[25] = second compound 3.16 µM, first compound 0.00316 µM
[26] = second compound 3.16 µM, first compound 0.01 µM
[27] = second compound 3.16 µM, first compound 0.0316 µM
[28] = second compound 3.16 µM, first compound 0.1 µM
[29] = second compound 3.16 µM, first compound 0.316 µM
[30] = second compound 3.16 µM, first compound 1 µM
[31] = second compound 10 µM, first compound 0.00316 µM
[32] = second compound 10 µM, first compound 0.01 µM
[33] = second compound 10 µM, first compound 0.0316 µM
[34] = second compound 10 µM, first compound 0.1 µM
[35] = second compound 10 µM, first compound 0.316 µM
[36] = second compound 10 µM, first compound 1 µM

In the case of CCN1CCN(Cc2ccc(Nc3ncc(F)c(-c4cc(F)c5nc(C)n(C(C)C)c5c4)n3)nc2)CC1 + Cc1c(S(C)(=O)=O)c(-c2cc(F)cc(N3CCN(c4ccc(NS(=O)(=O)c5ccc(NC(CCN6CCC(C(=O)OCCCP(=O)(O)O)CC6)CSc6ccccc6)c(S(=O)(=O)C(F)(F)F)c5)cc4)CC3)c2)c(-c2ccc(Cl)cc2)n1C(C)C, the IC50 (second compound 0.0316 µM) is reported as over 1000 nM, the IC50 (second compound 0.1 µM) is reported as over 1000 nM and the IC50 (second compound 0.316 µM) is reported as over 1000 nM. For the same molecule, the IC50 (second compound 1 µM) was over 1000 nM, the IC50 (second compound 3.16 µM) was over 1000 nM and the IC50 (second compound 10 µM) was over 1000 nM. The viability, T/C [1] was 102%, the viability, T/C [2] was 96.1% and the viability, T/C [3] was 95.6%. It also gave a viability, T/C [4] of 98.2%, a viability, T/C [5] of 112% and a viability, T/C [6] of 128%. The viability, T/C [7] was 90.3%, the viability, T/C [8] was 87.8% and the viability, T/C [9] was 90.4%. It also gave a viability, T/C [10] of 101%, a viability, T/C [11] of 112% and a viability, T/C [12] of 118%. The viability, T/C [13] was 93.6%, the viability, T/C [14] was 97.5% and the viability, T/C [15] was 103%. The viability, T/C [16] was 107%, the viability, T/C [17] was 117% and the viability, T/C [18] was 121%. It also gave a viability, T/C [19] of 89.1%, a viability, T/C [20] of 105% and a viability, T/C [21] of 99.7%. The viability, T/C [22] was 107%, the viability, T/C [23] was 97.5% and the viability, T/C [24] was 122%. The viability, T/C [25] was 108%, the viability, T/C [26] was 92.3% and the viability, T/C [27] was 103%. For the same molecule, the viability, T/C [28] was 89.7%, the viability, T/C [29] was 106% and the viability, T/C [30] was 95.4%. For the same molecule, the viability, T/C [31] was 105%, the viability, T/C [32] was 111% and the viability, T/C [33] was 90.2%. The viability, T/C [34] was 116%, the viability, T/C [35] was 93.1% and the viability, T/C [36] was 109%.
NC(=O)C(=Cn1cnc(-c2cc(C(F)(F)F)cc(C(F)(F)F)c2)n1)c1cncnc1 + Cc1c(S(C)(=O)=O)c(-c2cc(F)cc(N3CCN(c4ccc(NS(=O)(=O)c5ccc(NC(CCN6CCC(C(=O)OCCCP(=O)(O)O)CC6)CSc6ccccc6)c(S(=O)(=O)C(F)(F)F)c5)cc4)CC3)c2)c(-c2ccc(Cl)cc2)n1C(C)C gave an IC50 (second compound 0.0316 µM) of over 300 nM, an IC50 (second compound 0.1 µM) of over 300 nM and an IC50 (second compound 0.316 µM) of 219 nM. The IC50 (second compound 1 µM) was 155 nM, the IC50 (second compound 3.16 µM) was 131 nM and the IC50 (second compound 10 µM) was 108 nM. It also gave a viability, T/C (second compound 0.0316 µM, first compound 0.000949 µM) of 107%, a viability, T/C (second compound 0.0316 µM, first compound 0.003 µM) of 97.1% and a viability, T/C (second compound 0.0316 µM, first compound 0.00949 µM) of 103%. For the same molecule, the viability, T/C (second compound 0.0316 µM, first compound 0.03 µM) was 114%, the viability, T/C (second compound 0.0316 µM, first compound 0.0949 µM) was 89.3% and the viability, T/C (second compound 0.0316 µM, first compound 0.3 µM) was 55.4%. For the same molecule, the viability, T/C (second compound 0.1 µM, first compound 0.000949 µM) was 103%, the viability, T/C (second compound 0.1 µM, first compound 0.003 µM) was 92.6% and the viability, T/C (second compound 0.1 µM, first compound 0.00949 µM) was 93.5%. For the same molecule, the viability, T/C (second compound 0.1 µM, first compound 0.03 µM) was 102%, the viability, T/C (second compound 0.1 µM, first compound 0.0949 µM) was 90.4% and the viability, T/C (second compound 0.1 µM, first compound 0.3 µM) was 57.6%. For the same molecule, the viability, T/C (second compound 0.316 µM, first compound 0.000949 µM) was 115%, the viability, T/C (second compound 0.316 µM, first compound 0.003 µM) was 112% and the viability, T/C (second compound 0.316 µM, first compound 0.00949 µM) was 101%. It also gave a viability, T/C (second compound 0.316 µM, first compound 0.03 µM) of 107%, a viability, T/C (second compound 0.316 µM, first compound 0.0949 µM) of 90.4% and a viability, T/C (second compound 0.316 µM, first compound 0.3 µM) of 34.8%. It also gave a viability, T/C (second compound 1 µM, first compound 0.000949 µM) of 119%, a viability, T/C (second compound 1 µM, first compound 0.003 µM) of 111% and a viability, T/C (second compound 1 µM, first compound 0.00949 µM) of 114%. The viability, T/C (second compound 1 µM, first compound 0.03 µM) was 116%, the viability, T/C (second compound 1 µM, first compound 0.0949 µM) was 73.8% and the viability, T/C (second compound 1 µM, first compound 0.3 µM) was 18.1%. It also gave a viability, T/C (second compound 3.16 µM, first compound 0.000949 µM) of 109%, a viability, T/C (second compound 3.16 µM, first compound 0.003 µM) of 104% and a viability, T/C (second compound 3.16 µM, first compound 0.00949 µM) of 121%. It also gave a viability, T/C (second compound 3.16 µM, first compound 0.03 µM) of 111%, a viability, T/C (second compound 3.16 µM, first compound 0.0949 µM) of 66.7% and a viability, T/C (second compound 3.16 µM, first compound 0.3 µM) of 6.92%. It also gave a viability, T/C (second compound 10 µM, first compound 0.000949 µM) of 117%, a viability, T/C (second compound 10 µM, first compound 0.003 µM) of 115% and a viability, T/C (second compound 10 µM, first compound 0.00949 µM) of 132%. For the same molecule, the viability, T/C (second compound 10 µM, first compound 0.03 µM) was 127%, the viability, T/C (second compound 10 µM, first compound 0.0949 µM) was 55.8% and the viability, T/C (second compound 10 µM, first compound 0.3 µM) was 4.41%.
For O=C(c1ccc(F)c(F)c1Nc1ccc(I)cc1F)N1CC(O)([C@@H]2CCCCN2)C1 + Cc1c(S(C)(=O)=O)c(-c2cc(F)cc(N3CCN(c4ccc(NS(=O)(=O)c5ccc(NC(CCN6CCC(C(=O)OCCCP(=O)(O)O)CC6)CSc6ccccc6)c(S(=O)(=O)C(F)(F)F)c5)cc4)CC3)c2)c(-c2ccc(Cl)cc2)n1C(C)C, the IC50 (second compound 0.0316 µM) was over 1000 nM, the IC50 (second compound 0.1 µM) was over 1000 nM and the IC50 (second compound 0.316 µM) was over 1000 nM. It also gave an IC50 (second compound 1 µM) of over 1000 nM, an IC50 (second compound 3.16 µM) of over 1000 nM and an IC50 (second compound 10 µM) of over 1000 nM. For the same molecule, the viability, T/C [1] was 103%, the viability, T/C [2] was 114% and the viability, T/C [3] was 140%. The viability, T/C [4] was 173%, the viability, T/C [5] was 234% and the viability, T/C [6] was 135%. It also gave a viability, T/C [7] of 110%, a viability, T/C [8] of 134% and a viability, T/C [9] of 160%. The viability, T/C [10] was 199%, the viability, T/C [11] was 254% and the viability, T/C [12] was 122%. The viability, T/C [13] was 115%, the viability, T/C [14] was 115% and the viability, T/C [15] was 157%. For the same molecule, the viability, T/C [16] was 204%, the viability, T/C [17] was 244% and the viability, T/C [18] was 139%. It also gave a viability, T/C [19] of 129%, a viability, T/C [20] of 157% and a viability, T/C [21] of 195%. The viability, T/C [22] was 228%, the viability, T/C [23] was 258% and the viability, T/C [24] was 126%. For the same molecule, the viability, T/C [25] was 125%, the viability, T/C [26] was 137% and the viability, T/C [27] was 197%. For the same molecule, the viability, T/C [28] was 228%, the viability, T/C [29] was 253% and the viability, T/C [30] was 99.5%. The viability, T/C [31] was 154%, the viability, T/C [32] was 141% and the viability, T/C [33] was 183%. It also gave a viability, T/C [34] of 224%, a viability, T/C [35] of 234% and a viability, T/C [36] of 107%.
